Experimental findings from US10718772B2, “Method of detection of analyte active forms and determination of the ability of substances to bind into analyte active sites” (USTAV ORGANICKE CHEMIE A BIOCHEMIE AKADEMIE VED CR, V.V.I., priority 2014, dated 2020) are described below.

pKd, pKi: −log10 of the molar value. {C7NH2-Cpd13} = 6-amino-2-(hydroxymethyl)hexyl phosphate carrying Compound 13; {C6NH2-Cpd13} = 6-aminohexyl phosphate carrying Compound 13; {AmHex} = 6-amino-2-(hydroxymethyl)hexyl phosphate

Series [1] concerns the target T1, Avi-PSMA (Homo sapiens, UniProt Q04609).
T1 construct: Biotinylated extracellular portion of PSMA (hereinafter called Avi-PSMA) used in the enzyme assay; made in house
The experiment in a line: Enzyme kinetics of Avi-PSMA (HPLC, cleavage of pteroyl-bis-L-glutamate). Format: biochemical.

For series [2], the target named is T2, HIV-1 protease (Human immunodeficiency virus type 1 group M subtype B, UniProt P04585).
T2 construct: made in house
The experiment in a line: HIV-1 protease enzyme kinetics with chromogenic peptide substrate. Format: biochemical.

The target in another series is CA-IX (Homo sapiens, UniProt Q16790, N346D). The experiment in a line: Reference enzyme kinetics of CA-IX (construct without PG domain).
Series [3] deals with T3, CA-IX contained in a cell lysate of line HT-29 (Homo sapiens, UniProt Q16790).
T3 construct: unpurified endogenous CA-IX contained in a cell lysate or in microliter volumes of serum; endogenous in cells; host or cells: HT-29
The experiment in a line: Bivalent ssCAbis probe assay, CA-IX from HT-29 cell lysate on M75 antibody, qPCR. Format: binding.
Description: (§1) Following the procedure described in the preceding examples, approximately 80 pg of CA-IX contained in a cell lysate of line HT-29 (used amount of total protein determined by Bradford assay was 1 μg) was immobilized using the M75 antibody.

Series [4] addresses T2, HIV-1 protease. Kind of series: ssHIV1 probe assay, HIV-1 protease directly adsorbed on solid carrier, qPCR. Format: binding. The conditions noted are these: pH 6.0.
Series [5] concerns the target T2, HIV-1 protease. The experiment in a line: ssHIV1 probe assay, HIV-1 protease bound to immobilized polyclonal antibody, qPCR. Format: binding.
Series [6] addresses T1, Avi-PSMA. Kind of series: PSMA catalytic activity for substrate hydrolysis by dsA3PSMA probe displacement, qPCR. Conditions: for substrate cleaved during incubation: 40 minutes. Format: biochemical. On the procedure:
Following the procedure described in section 1i, 20 pg of Avi-PSMA was immobilized to the bottom of the wells via immobilized neutravidin and subsequently incubated with the dsA3PSMA detection probe at a concentration of 35 pmol·l^−1 and simultaneously with various concentrations of the folyl-γ-L-glutamate substrate in the range of 10 nmol·l^−1 to 100 μmol·l^−1 for 40 minutes, and after washing, the amount of bound probe was determined with qPCR. […] At a concentration of 336 nmol·l^−1, 43% was cleaved, corresponding to kcat of 2.3 s^−1 and at a concentration of 1049 nmol·l^−1, 16% was cleaved, corresponding to kcat of 2.6 s^−1. Obtained kcat values are in conformity with the kcat value of 5 s^−1 obtained from enzyme kinetics as described in Section 1c.

A further series concerns the target T4, CA-IX from blood serum (Homo sapiens, UniProt Q16790).
T4 construct: unpurified endogenous CA-IX contained in a cell lysate or in microliter volumes of serum; from tissue; host or cells: human blood serum
Kind of series: Bivalent ssCAbis probe assay, CA-IX from blood serum on M75 antibody, qPCR. Format: binding. The conditions noted are these: CA-IX from 1 μl of blood serum.

[7] abbreviates: first independent experiment, read-out: Ki (1).
The mark [8] stands for this setting: second independent experiment, read-out: Ki (2).
[9] abbreviates: initial concentration 107 nmol·l^−1.
Where [10] appears, read: initial concentration 336 nmol·l^−1.
Setting [11] is: initial concentration 1049 nmol·l^−1.

T1 sequence (Q04609 44-750 limits assumed): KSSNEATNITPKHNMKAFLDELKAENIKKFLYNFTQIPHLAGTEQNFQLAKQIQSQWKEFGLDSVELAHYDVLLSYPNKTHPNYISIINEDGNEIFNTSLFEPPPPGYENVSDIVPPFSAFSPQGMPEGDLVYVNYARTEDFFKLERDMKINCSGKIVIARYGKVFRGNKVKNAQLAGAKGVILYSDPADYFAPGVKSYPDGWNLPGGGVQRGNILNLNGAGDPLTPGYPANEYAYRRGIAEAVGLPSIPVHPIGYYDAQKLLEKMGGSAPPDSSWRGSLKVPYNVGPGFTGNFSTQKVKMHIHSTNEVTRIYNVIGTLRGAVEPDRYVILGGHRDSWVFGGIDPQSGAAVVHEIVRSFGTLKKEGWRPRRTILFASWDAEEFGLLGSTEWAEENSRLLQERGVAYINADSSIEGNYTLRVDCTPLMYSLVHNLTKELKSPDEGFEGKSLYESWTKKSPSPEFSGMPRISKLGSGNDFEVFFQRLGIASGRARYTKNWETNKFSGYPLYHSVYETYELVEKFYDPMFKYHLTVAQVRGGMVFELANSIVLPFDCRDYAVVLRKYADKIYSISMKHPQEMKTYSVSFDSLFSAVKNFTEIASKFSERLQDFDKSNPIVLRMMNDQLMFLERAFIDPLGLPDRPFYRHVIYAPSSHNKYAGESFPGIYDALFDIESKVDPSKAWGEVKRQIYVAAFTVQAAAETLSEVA
Description for CA-IX from blood serum: as §1

`O=C(O)CCC(NC(=O)NC(CCCCNC(=O)CCOCCC(=O)NCCO)C(=O)O)C(=O)O` (centres unmarked) [Compound 4, 1-hydroxy-4,10,18-trioxo-7-oxa-3,11,17,19-tetraazadocosane-16,20,22-tricarboxylic acid] gave a pKi at Avi-PSMA [1] (Avi-PSMA, IC50 converted by Cheng-Prusoff, pH 7.4, 37° C.) of 8.48.

Compound `CC(C)[C@H](NC(=O)CCOCCOCCOCCOCCOCCC(=O)NCCO)C(=O)N[C@@H](Cc1ccccc1)C[C@H](O)[C@H](Cc1ccccc1)NC(=O)OCc1cncs1` [Compound 8, thiazol-5-ylmethyl ((24S,27S,29S,30S)-27-benzyl-1,29-dihydroxy-24-isopropyl-4,22,25-trioxo-31-phenyl-7,10,13,16,19-pentaoxa-3,23,26-triazahentriacontan-30-yl)carbamate] showed a pKi at HIV-1 protease [2] of 8.64.

Consider `NS(=O)(=O)c1ccc(NC(=O)Nc2ccc(OCCCCNC(=O)CCOCCOCCOCCOCCOCCC(=O)ON3C(=O)CCC3=O)cc2)cc1` [Compound 13, 2,5-dioxopyrrolidin-1-yl 19-oxo-24-(4-(3-(4-sulfamoylphenyl)ureido)phenoxy)-4,7,10,13,16-pentaoxa-20-azatetracosan-1-oate], for which, at CA-IX, the pKi is roughly 6.40.

`NCCOCCOCCOCCOCCOCCC(=O)NCCCCOc1ccc(NC(=O)Nc2ccc(S(N)(=O)=O)cc2)cc1` [Compound 14, 18-oxo-23-(4-(3-(4-sulfamoylphenyl)ureido)phenoxy)-3,6,9,12,15-pentaoxa-19-azatri-cosan-1-aminium 2,2,2-trifluoroacetate]: the pKi in series [3] (ssCAbis probe, determined in the same way as Table 15, read-out: inhibitory constant) is 6.52.

Compound `NCCCC[C@H](NC(=O)N[C@@H](CCC(=O)O)C(=O)O)C(=O)O` [PSMA parent compound, S,S-2-[3-[5-amino-1-carboxypentyl]-ureido]-pentanedioic acid] gave a pKi at Avi-PSMA [1] (Avi-PSMA enzyme assay) of 9.70.

For `COC(=O)N[C@H](C(=O)N[C@@H](Cc1ccccc1)[C@@H](O)CN(Cc1ccc(-c2ccccn2)cc1)NC(=O)[C@@H](NC(=O)OC)C(C)(C)C)C(C)(C)C` [atazanavir], the pKi at HIV-1 protease [4] (setting [7]) is 9.96; at HIV-1 protease [4] (setting [8]), 9.74; on HIV-1 protease [2], 10.62; at HIV-1 protease [5] it was 8.85.

For `Cc1nc(COc2ccc(C[C@H](NC(=O)O[C@H]3CO[C@H]4OCC[C@H]43)[C@H](O)CN(CC(C)C)S(=O)(=O)c3ccc4c(c3)OCO4)cc2)cs1` [brecanavir], the pKi at HIV-1 protease [4] (setting [7]) is 10.40; on HIV-1 protease [4] (setting [8]) it was 10.30; on HIV-1 protease [2], 12.00; on HIV-1 protease [5], 9.39.

Consider `Nc1nc2ncc(CNc3ccc(C(=O)N[C@@H](CCC(=O)N[C@@H](CCC(=O)O)C(=O)O)C(=O)O)cc3)nc2c(=O)[nH]1` [folyl-γ-L-glutamate], for which the kcat at Avi-PSMA [6] (setting [9]) came to 1.2 s⁻¹; at Avi-PSMA [6] (setting [10]), 2.3 s⁻¹; at Avi-PSMA [6] (setting [11]) it was 2.6 s⁻¹. Further, the “substrate cleaved during incubation” value at Avi-PSMA [6] (setting [9]) came out at 80%; at Avi-PSMA [6] (setting [10]) it was 43%; at Avi-PSMA [6] (setting [11]), 16%. Moreover, at Avi-PSMA [1] (as described in Section 1c), the “kcat from enzyme kinetics” value was found to be 5 s⁻¹.

For the compound `Cc1cccc(C)c1OCC(=O)N[C@@H](Cc1ccccc1)[C@@H](O)C[C@H](Cc1ccccc1)NC(=O)[C@H](C(C)C)N1CCCNC1=O` [lopinavir], the pKi on HIV-1 protease [4] (setting [7]) was 9.74; on HIV-1 protease [4] (setting [8]) it was 9.39; at HIV-1 protease [2], 10.74; at HIV-1 protease [5], 8.89.

As for `CCC[C@@]1(CCc2ccccc2)CC(O)=C([C@H](CC)c2cccc(NS(=O)(=O)c3ccc(C(F)(F)F)cn3)c2)C(=O)O1` [tipranavir], the pKi on HIV-1 protease [4] (setting [7]) is 8.89; on HIV-1 protease [4] (setting [8]) it was 8.54; at HIV-1 protease [2], 9.85; on HIV-1 protease [5] it was 7.85.

Take “iqPCR_amino: single-stranded DNA (SEQ ID NO: 1) with 3′-terminal 6-amino-2-(hydroxymethyl)hexyl phosphate modification, no ligand portion (DNA CCTGCCAGTTGAGCATTTTTATCTGCCACCTTCTCCACCAGACAAAAGCTGGAAA; DNA, 3' {AmHex}, backbone not given here)”: the “inhibition at the highest concentration used” value with Avi-PSMA [1] (0.5 μmol·l^−1) is listed as “no inhibition observed”. Moreover, the “binding to immobilized HIV-1 protease” value with HIV-1 protease [5] (100 ng of HIV-1 protease) was “no binding was observed”.

Turning to “ssCAbis: bivalent probe: two molecules of Compound 13 on oligonucleotide SEQ ID NO: 7 (DNA AAACCTGCCAGTTGAGCATTTTTATCTGCCACCTTCTCCACCAGACAAAAGCTGGAAA; 5' {C6NH2-Cpd13}, 3' {C7NH2-Cpd13}, sugars by position and backbone not given here)”, the pKd with CA-IX from blood serum is 8.66; in series [3] (HT-29 lysate, HEPESTC′ buffer), 8.68.
